Like-named read-outs stand apart in the source and are kept apart here.
Assays:
Single-turnover [1] = experiment: Single-turnover; set-up: species or system [13, 20]; details: Rev1; for Kd: read-out: Kd (incoming nucleotide, Pol•DNA complex)
Single-turnover [2] = experiment: Single-turnover; set-up: species or system [13, 20]; details: Pol ι; for Kd: read-out: Kd (incoming nucleotide, Pol•DNA complex), 37 °C
[3] = Single-turnover kinetic assays, summary over the non-canonical human pols; set-up: species or system [13, 20]
Single-turnover [4] = experiment: Single-turnover; set-up: species or system [13, 20]; details: read-out: Kd (incoming nucleotide, Pol•DNA complex), Pol η, 37 °C
Single-turnover [5] = experiment: Single-turnover; set-up: species or system [13, 20]; details: read-out: Kd (incoming nucleotide, Pol•DNA complex), Pol β, 37 °C
[6] = read-out: Kd (incoming nucleotide, Pol•DNA complex); HIV-1 RT; opposite template dC; 37 °C; cited from earlier work
Single-turnover [7] = experiment: Single-turnover; set-up: species or system [13, 20]; details: read-out: Kd (incoming nucleotide, Pol•DNA complex), Pol λ, 37 °C
Single-turnover [8] = experiment: Single-turnover; set-up: species or system [13, 20]; details: Pol κ; for Kd: read-out: Kd (incoming nucleotide, Pol•DNA complex), 37 °C
[9] = read-out: Kd (incoming nucleotide, Pol•DNA complex), Pol λ, 37 °C, cited from earlier work
[10] = read-out: Kd (incoming nucleotide, Pol•DNA complex), Pol κ, 37 °C, cited from earlier work
[11] = Pols β, λ, η, ι, κ, Rev1; cited from earlier work
[12] = Rev1, 37 °C, cited from earlier work; for Kd: read-out: Kd (incoming nucleotide, Pol•DNA complex)
[13] = read-out: Kd (incoming nucleotide, Pol•DNA complex), Pol β, 37 °C, cited from earlier work
[14] = read-out: Kd (incoming nucleotide, Pol•DNA complex), Pol γ, 37 °C, cited from earlier work
[15] = Pol ι, 37 °C, cited from earlier work; for Kd: read-out: Kd (incoming nucleotide, Pol•DNA complex)
[16] = read-out: Kd (incoming nucleotide, Pol•DNA complex), Pol η, 37 °C, cited from earlier work
[17] = read-out: Kd (incoming nucleotide, Pol•DNA complex); T7 exo; opposite template dT; 37 °C; cited from earlier work

## C=C1[C@H](COP(=O)(O)OP(=O)(O)OP(=O)(O)O)[C@@H](O)C[C@@H]1n1cnc2c(=O)[nH]c(N)nc21 [ETV-TP, entecavir 5′-triphosphate]
Single-turnover [1]; opposite template dC, 37 °C
  Kd: 56 ± 10 µM
Single-turnover [2]; opposite template dC
  Kd: 33 ± 5 µM
[3]; Pols β, λ, η, ι, κ, Rev1
  Rate of incorporation slower than dGTP, on average: 120 fold
[3]; except for Rev1
  Binding affinity tighter than dGTP, on average: approximately 20 fold
Single-turnover [4]; opposite template dC
  Kd: 2.4 ± 0.4 µM
Single-turnover [5]; opposite template dC
  Kd: 0.26 ± 0.04 µM
[6]
  Kd: 2.23 ± 0.67 µM
Single-turnover [7]; opposite template dC
  Kd: 0.09 ± 0.02 µM
Single-turnover [8]; opposite template dC
  Kd: 4.2 ± 0.1 µM

## Nc1ccn([C@H]2CS[C@@H](COP(=O)(O)OP(=O)(O)OP(=O)(O)O)O2)c(=O)n1 [L-3TC-TP, β-L-2′,3′-dideoxy-3′-thiacytidine 5′-triphosphate]
[9]; opposite template dG
  Kd: 0.106 ± 0.01 µM
[10]; opposite template dG
  Kd: 4 ± 0.5 µM
[11]
  Decrease of Kd compared to dCTP, on average: 6 fold
[12]; opposite template dG
  Kd: 1.04 ± 0.1 µM
[13]; opposite template dG
  Kd: 0.18 ± 0.02 µM
[14]; opposite template dG
  Kd: 9.2 ± 0.9 µM
[15]; opposite template dG
  Kd: 96 ± 8 µM
[16]; opposite template dG
  Kd: 3.3 ± 0.3 µM

## Cc1cn([C@@H]2C[C@@H](O)[C@H](COP(=O)(O)OP(=O)(O)OP(=O)(O)O)O2)c(=O)[nH]c1=O [L-TBV-TP, β-L-2′-deoxythymidine 5′-triphosphate]
Single-turnover [1]; opposite template dA, 37 °C
  Kd (incoming nucleotide, Pol•DNA complex): No observed incorporation
Single-turnover [2]; opposite template dA
  Kd: 100 ± 30 µM
[3]; Pols β, λ, η, ι, κ, Rev1, analog vs its natural dNTP, 37 °C
  Selection factors, range over the non-canonical human pols: greater than 8,000
[3]; pols other than Rev1
  Binding to the Pol•DNA complex weakened compared to dTTP, on average: 10 fold
Single-turnover [4]; opposite template dA
  Kd: 400 ± 100 µM
Single-turnover [5]; opposite template dA
  Kd: 11 ± 1 µM
Single-turnover [7]; opposite template dA
  Kd: 53 ± 6 µM
Single-turnover [8]; opposite template dA
  Kd: 90 ± 20 µM

## Nc1ncnc2c1ncn2CCOCP(=O)(O)OP(=O)(O)OP(=O)(O)O [PMEA-DP, diphosphate of 9-[2-(phosphonomethoxy)ethyl]adenine]
Single-turnover [1]; opposite template dT
  Decrease of rate of incorporation relative to dATP: 4 fold
  Ground-state binding affinity (1/Kd) weaker than dATP: 60 fold
Single-turnover [1]; opposite template dT, 37 °C
  Kd: 120 ± 20 µM
Single-turnover [2]; opposite template dT
  Decrease of rate of incorporation relative to dATP: 30 fold
  Ground-state binding affinity (1/Kd) relative to dATP: unchanged
  Kd: 180 ± 40 µM
Single-turnover [4]; opposite template dT
  Kd: 55 ± 18 µM
Single-turnover [5]; opposite template dT
  Kd: 65 ± 6 µM
Single-turnover [7]; opposite template dT (21-19C-41merTG)
  Kd: 4.5 ± 0.3 µM
Single-turnover [8]; opposite template dT
  Decrease of rate of incorporation relative to dATP: 60 fold
  Ground-state binding affinity (1/Kd) weaker than dATP: 3 fold
  Kd: 23 ± 3 µM

## CC(Cn1cnc2c(N)ncnc21)OCP(=O)(O)OP(=O)(O)OP(=O)(O)O (stereo not drawn) [PMPA-DP, diphosphate of 9-[2-(phosphonomethoxy)propyl]adenine]
[9]; opposite template dT
  Kd: 3.7 ± 0.9 µM
[17]
  Kd: 268 ± 39 µM
[10]; opposite template dT
  Kd: 3000 ± 2000 µM
[12]; opposite template dT
  Kd (incoming nucleotide, Pol•DNA complex): No observed incorporation
  kp (maximum rate of incorporation): too inefficient to be observed
[13]; opposite template dT
  Kd: 50 ± 10 µM
[14]; opposite template dT
  Kd: 40.3 ± 5.7 µM
[15]; opposite template dT
  Kd (incoming nucleotide, Pol•DNA complex): No observed incorporation
  kp (maximum rate of incorporation): too inefficient to be observed
[16]; opposite template dT
  Kd: 90 ± 10 µM

## Nc1ncnc2c1ncn2[C@H]1C[C@H](O)[C@@H](COP(=O)(O)OP(=O)(O)OP(=O)(O)O)O1 [dATP]
[9]; opposite template dT
  Kd: 0.9 ± 0.3 µM
[17]
  Kd: 8 ± 2 µM
[10]; opposite template dT
  Kd: 7 ± 1 µM
[12]; opposite template dT
  Kd: 2 ± 0.3 µM
[13]; opposite template dT
  Kd: 9.2 ± 1 µM
[14]; opposite template dT
  Kd: 0.8 ± 0.1 µM
[15]; opposite template dT
  Kd: 260 ± 40 µM
[16]; opposite template dT
  Kd: 130 ± 30 µM

## Nc1ccn([C@H]2C[C@H](O)[C@@H](COP(=O)(O)OP(=O)(O)OP(=O)(O)O)O2)c(=O)n1 [dCTP]
[9]; opposite template dG
  Kd: 0.9 ± 0.1 µM
[10]; opposite template dG
  Kd: 32 ± 5 µM
[12]; opposite template dG
  Kd: 2.2 ± 0.3 µM
[13]; opposite template dG
  Kd: 0.71 ± 0.04 µM
[14]; opposite template dG
  Kd: 1.1 ± 0.1 µM
[15]; opposite template dG
  Kd: 50 ± 5 µM
[16]; opposite template dG
  Kd: 25 ± 4 µM

## Nc1nc2c(ncn2[C@H]2C[C@H](O)[C@@H](COP(=O)(O)OP(=O)(O)OP(=O)(O)O)O2)c(=O)[nH]1 [dGTP]
[9]; opposite template dC
  Kd: 2.1 ± 0.3 µM
Single-turnover [1]; opposite template dC, 37 °C
  Kd: 3.9 ± 0.8 µM
Single-turnover [2]; opposite template dC
  Kd: 141 ± 8 µM
Single-turnover [4]; opposite template dC
  Kd: 80 ± 10 µM
Single-turnover [5]; opposite template dC
  Kd: 8.7 ± 0.4 µM
[6]
  Kd: 1.76 ± 0.51 µM
Single-turnover [8]; opposite template dC
  Kd: 10.6 ± 0.9 µM

## Cc1cn([C@H]2C[C@H](O)[C@@H](COP(=O)(O)OP(=O)(O)OP(=O)(O)O)O2)c(=O)[nH]c1=O [dTTP]
[9]; opposite template dA
  Kd: 2.6 ± 0.4 µM
[10]; opposite template dA
  Kd: 11 ± 0.5 µM
[12]; opposite template dA
  Kd: 6 ± 1 µM
[13]; opposite template dA
  Kd: 3.5 ± 0.5 µM
[15]; opposite template dA
  Kd: 13 ± 1 µM
[16]; opposite template dA
  Kd: 41 ± 5 µM

From publication PMC3259259 (Chemical Research in Toxicology, 2011)
